The source made the active and inactive calls. The calls are words filed in the database; no cut-off is given here.
What was measured:
[1] = Cmax in BALB/c mouse at 10 mg/kg, po measured upto 24 hrs by LC/MS-MS analysis; format: ADME, organism-based; details: in vivo
[2] = Tmax in BALB/c mouse at 10 mg/kg, po measured upto 24 hrs by LC/MS-MS analysis; format: ADME, organism-based; details: in vivo
[3] = Half life in BALB/c mouse at 10 mg/kg, po measured upto 24 hrs by LC/MS-MS analysis; format: ADME, organism-based; details: in vivo
[4] = AUC (0 to t) in BALB/c mouse at 10 mg/kg, po measured upto 24 hrs by LC/MS-MS analysis; format: ADME, organism-based; details: in vivo
[5] = AUC (0 to infinity) in BALB/c mouse at 10 mg/kg, po measured upto 24 hrs by LC/MS-MS analysis; format: ADME, organism-based; details: in vivo
[6] = test system: RAW264.7; test: Antiinflammatory activity in LPS-induced mouse RAW264.7 cells assessed as inhibition of TNF-alpha level at 20 uM incubated for 24 hrs by ELISA method relative to control; format: functional
[7] = test system: RAW264.7; test: Antiinflammatory activity in LPS-induced mouse RAW264.7 cells assessed as inhibition of IL-6 level at 20 uM incubated for 24 hrs by ELISA method relative to control; format: functional
[8] = Toxicity in BALB/c mouse assessed as histopathological lesions in lung at 10 mg/kg, po by H and E staining based analysis; format: organism-based; details: in vivo
[9] = test system: RAW264.7; test: Cytotoxicity against mouse RAW264.7 cells assessed as cell viability at 40 uM measured after 24 hrs by MTT assay; format: toxicity, cell-based; details: raw264.7, 24 h
[10] = test system: RAW264.7; test: Antiinflammatory activity in LPS-induced mouse RAW264.7 cells assessed as reduction in TNF-alpha release incubated for 24 hrs by ELISA method; format: functional, cell-based; details: dose 2.5-10 µM
[11] = test system: RAW264.7; test: Antiinflammatory activity in LPS-induced mouse RAW264.7 cells assessed as reduction in IL-6 release incubated for 24 hrs by ELISA method; format: functional, cell-based; details: dose 2.5-10 µM
[12] = Toxicity in BALB/c mouse assessed as liver lesions at 2.5 to 10 mg/kg, iv administered for 2 hrs and measured after 12 hrs by H and E staining based assay; format: organism-based; details: in vivo, 14 h, dose 2.5-10 mg/kg
[13] = Toxicity in BALB/c mouse assessed as lung lesions at 2.5 to 10 mg/kg, iv administered for 2 hrs and measured after 12 hrs by H and E staining based assay; format: organism-based; details: in vivo, 14 h, dose 2.5-10 mg/kg
[14] = Toxicity in BALB/c mouse assessed as kidney lesions at 2.5 to 10 mg/kg, iv administered for 2 hrs and measured after 12 hrs by H and E staining based assay; format: organism-based; details: in vivo, 14 h, dose 2.5-10 mg/kg
[15] = test system: Mus musculus; test: Antiinflammatory activity in LPS-induced BALB/c sepsis mouse model assessed as decrease in serum AST level at 2.5 to 10 mg/kg, iv administered for 2 hrs and measured after 12 hrs; format: functional, organism-based; details: dose 2.5-10 mg/kg, time 14.0 hrs
[16] = test system: Mus musculus; test: Antiinflammatory activity in LPS-induced BALB/c sepsis mouse model assessed as decrease in serum ALT level at 2.5 to 10 mg/kg, iv administered for 2 hrs and measured after 12 hrs; format: functional, organism-based; details: dose 2.5-10 mg/kg, time 14.0 hrs
[17] = test system: Mus musculus; test: Antiinflammatory activity in LPS-induced BALB/c sepsis mouse model assessed as decrease in serum SOD level at 2.5 to 10 mg/kg, iv administered for 2 hrs and measured after 12 hrs; format: functional, organism-based; details: dose 2.5-10 mg/kg, time 14.0 hrs
[18] = test system: Mus musculus; test: Antiinflammatory activity in LPS-induced BALB/c sepsis mouse model assessed as decrease in serum MDA level at 2.5 to 10 mg/kg, iv administered for 2 hrs and measured after 12 hrs; format: functional, organism-based; details: dose 2.5-10 mg/kg, time 14.0 hrs
[19] = test system: Mus musculus; test: Antiinflammatory activity in LPS-induced BALB/c sepsis mouse model assessed as decrease in serum BUN level at 2.5 to 10 mg/kg, iv administered for 2 hrs and measured after 12 hrs; format: functional, organism-based; details: dose 2.5-10 mg/kg, time 14.0 hrs
[20] = test system: Mus musculus; test: Antiinflammatory activity in LPS-induced BALB/c sepsis mouse model assessed as decrease in serum SCr level at 2.5 to 10 mg/kg, iv administered for 2 hrs and measured after 12 hrs; format: functional, organism-based; details: dose 2.5-10 mg/kg, time 14.0 hrs
[21] = test system: Mus musculus; test: Antiinflammatory activity in LPS-induced BALB/c sepsis mouse model assessed as reduction in IL-6 level in serum at 2.5 to 10 mg/kg, iv administered for 2 hrs and measured after 12 hrs by ELISA analysis; format: functional, organism-based; details: dose 2.5-10 mg/kg, time 14.0 hrs
[22] = test system: Mus musculus; test: Antiinflammatory activity in LPS-induced BALB/c sepsis mouse model assessed as reduction in TNF-alpha level in serum at 2.5 to 10 mg/kg, iv administered for 2 hrs and measured after 12 hrs by ELISA analysis; format: functional, organism-based; details: dose 2.5-10 mg/kg, time 14.0 hrs
[23] = Toxicity in BALB/c mouse assessed as increase in survival rate at 10 mg/kg, po administered for 3 days; format: organism-based; details: in vivo, 72 h, time 3 day
[24] = Toxicity in BALB/c mouse assessed as change in body weight at 10 mg/kg, po administered for 3 days; format: organism-based; details: in vivo, 72 h, time 3 day
[25] = test system: RAW264.7; test: Antiinflammatory activity in LPS-induced mouse RAW264.7 cells assessed as reduction in TAK1-TAB1 complex formation incubated for 2 hrs vy immunoprecipitation analysis; format: functional, cell-based
[26] = Toxicity in BALB/c mouse assessed as pathological damage in liver at 10 mg/kg, po administered for 2 hrs by H and E staining based analysis; format: organism-based; details: in vivo
[27] = Toxicity in BALB/c mouse assessed as pathological damage in heart at 10 mg/kg, po administered for 2 hrs by H and E staining based analysis; format: organism-based; details: in vivo
[28] = Toxicity in BALB/c mouse assessed as pathological damage in spleen at 10 mg/kg, po administered for 2 hrs by H and E staining based analysis; format: organism-based; details: in vivo
[29] = Toxicity in BALB/c mouse assessed as pathological damage in lung at 10 mg/kg, po administered for 2 hrs by H and E staining based analysis; format: organism-based; details: in vivo
[30] = Toxicity in BALB/c mouse assessed as pathological damage in kidney at 10 mg/kg, po administered for 2 hrs by H and E staining based analysis; format: organism-based; details: in vivo
[31] = Toxicity in BALB/c mouse assessed as animal survival at 750 mg/kg, po administered for 2 hrs; format: organism-based; details: in vivo
[32] = Toxicity in BALB/c mouse assessed as animal survival at 500 mg/kg, po administered for 2 hrs; format: organism-based; details: in vivo
[33] = (§1) Toxicity in BALB/c mouse assessed as histopathological lesions in lung at 10 mg/kg, po in presence of 4a-benzyl-12-ethyl-(6aS,6bR,9R,13aR)-9-(hydroxymethyl)-2,2,6a,6b,9,13a-hexamethyl-1,3,4,5,6,6a,6b,7,8,8a,9,13,13a,13b,14,15b-hexadecahydropiceno[2,3-d]isoxazole-4a,12(2H)-dicarboxylate by H and E staining based analysis; format: organism-based; details: in vivo
[34] = as §1, with “liver” for “lung”; format: organism-based; details: in vivo
[35] = as §1, with “kidney” for “lung”; format: organism-based; details: in vivo
[36] = Toxicity in BALB/c mouse assessed as change in MDA level in serum at 10 mg/kg, po; format: organism-based; details: in vivo
[37] = Toxicity in BALB/c mouse assessed as histopathological lesions in liver at 10 mg/kg, po by H and E staining based analysis; format: organism-based; details: in vivo
[38] = Toxicity in BALB/c mouse assessed as histopathological lesions in kidney at 10 mg/kg, po by H and E staining based analysis; format: organism-based; details: in vivo
[39] = Toxicity in BALB/c mouse assessed as change in AST level in serum at 10 mg/kg, po; format: organism-based; details: in vivo
[40] = Toxicity in BALB/c mouse assessed as change in ALT level in serum at 10 mg/kg, po; format: organism-based; details: in vivo
[41] = Toxicity in BALB/c mouse assessed as change in SOD level in serum at 10 mg/kg, po; format: organism-based; details: in vivo
[42] = Toxicity in BALB/c mouse assessed as change in BUN level in serum at 10 mg/kg, po; format: organism-based; details: in vivo
[43] = Toxicity in BALB/c mouse assessed as change in SCr level in serum at 10 mg/kg, po; format: organism-based; details: in vivo

## CC1(C)CC[C@]2(C(=O)OCc3ccccc3)CC[C@]3(C)C(=CC[C@@H]4[C@@]5(C)Cc6c(C(=O)O)noc6[C@@](C)(COC(=O)CCC(=O)N6CCOCC6)[C@@H]5CC[C@]43C)[C@@H]2C1
[1]
  Cmax: 209 ng/mL
[2]
  Tmax: 1.5 h
[3]
  half-life: 4.49 h
[4]
  AUC(0-t) at 24 h: 1290 ng·h/mL
[5]
  AUC(0-inf): 2020 ng·h/mL

## C[C@@H]1C[C@H]2[C@@H]3CCC4=CC(=O)C=C[C@]4(C)[C@@]3(F)[C@@H](O)C[C@]2(C)[C@@]1(O)C(=O)CO [DEXAMETHASONE]
[6]
  inhibition at 20 µM: 80.7%
[7]
  inhibition at 20 µM: 73.5%
[8]
  Activity: Non-toxic

## CCOC(=O)c1noc2c1C[C@@]1(C)[C@@H](CC[C@]3(C)[C@@H]1CC=C1[C@@H]4CC(C)(C)CC[C@]4(C(=O)OCc4ccccc4)CC[C@]13C)[C@]2(C)COC(=O)CCC(=O)N1CCOCC1
[9]
  Activity: Non-toxic
[6]
  inhibition at 20 µM: 80%
[7]
  inhibition at 20 µM: 69.6%
[10]
  Activity: Dose-dependent-effect
[11]
  Activity: Dose-dependent-effect
[12]
  Activity: Non-toxic
[13]
  Activity: Non-toxic
[14]
  Activity: Non-toxic
[15]
  Activity: Active
[16]
  Activity: Active
[17]
  Activity: Active
[18]
  Activity: Active
[19]
  Activity: Active
[20]
  Activity: Active
[21]
  Activity: Active
[22]
  Activity: Active
[23]
  Activity: Non-toxic
[24]
  Activity: Non-toxic
[25]
  Activity: Active
[26]
  Activity: Non-toxic
[27]
  Activity: Non-toxic
[28]
  Activity: Non-toxic
[29]
  Activity: Non-toxic
[30]
  Activity: Non-toxic
[31]
  Activity: Toxic
[32]
  Activity: Non-toxic
[1]
  Cmax: 2760 ng/mL
[2]
  Tmax: 2.25 h
[3]
  half-life: 5.42 h
[4]
  AUC(0-t) at 24 h: 9620 ng·h/mL
[5]
  AUC(0-inf): 9970 ng·h/mL
[33]
  Activity: Non-toxic
[34]
  Activity: Non-toxic
[35]
  Activity: Non-toxic
[36]
  Activity: Non-toxic

## CCOC(=O)c1noc2c1C[C@@]1(C)[C@@H](CC[C@]3(C)[C@@H]1CC=C1[C@@H]4CC(C)(C)CC[C@]4(C(=O)OCc4ccccc4)CC[C@]13C)[C@]2(C)CO
[9]
  Activity: Non-toxic
[6]
  inhibition at 20 µM: 52.4%
[7]
  inhibition at 20 µM: 32.5%
[1]
  Cmax: 3930 ng/mL
[2]
  Tmax: 4 h
[3]
  half-life: 4.85 h
[4]
  AUC(0-t) at 24 h: 22700 ng·h/mL
[5]
  AUC(0-inf): 23400 ng·h/mL
[37]
  Activity: Non-toxic
[38]
  Activity: Non-toxic
[39]
  Activity: Non-toxic
[40]
  Activity: Non-toxic
[41]
  Activity: Non-toxic
[42]
  Activity: Non-toxic
[43]
  Activity: Non-toxic

## CC1(C)CC[C@]2(C(=O)OCc3ccccc3)CC[C@]3(C)C(=CC[C@@H]4[C@@]5(C)Cc6c(C(=O)O)noc6[C@@](C)(CO)[C@@H]5CC[C@]43C)[C@@H]2C1
[1]
  Cmax: 285 ng/mL
[2]
  Tmax: 3 h
[3]
  half-life: 5.54 h
[4]
  AUC(0-t) at 24 h: 2580 ng·h/mL
[5]
  AUC(0-inf): 2720 ng·h/mL

Reference: ChEMBL document CHEMBL6121038, “Design and Synthesis of Hederagenin Derivatives for the Treatment of Sepsis by Targeting TAK1 and Regulating the TAK1-NF-κB/MAPK Signaling” (J Med Chem, 2025)
